Data reported in ChEMBL document CHEMBL1139896, “Synthesis, characterization, and estrogen receptor binding affinity of flavone-, indole-, and furan-estradiol conjugates” (Bioorg Med Chem Lett, 2007).

Molecular target: T1, Estrogen receptor (Homo sapiens, UniProt P03372)
T1 sequence (P03372 whole entry): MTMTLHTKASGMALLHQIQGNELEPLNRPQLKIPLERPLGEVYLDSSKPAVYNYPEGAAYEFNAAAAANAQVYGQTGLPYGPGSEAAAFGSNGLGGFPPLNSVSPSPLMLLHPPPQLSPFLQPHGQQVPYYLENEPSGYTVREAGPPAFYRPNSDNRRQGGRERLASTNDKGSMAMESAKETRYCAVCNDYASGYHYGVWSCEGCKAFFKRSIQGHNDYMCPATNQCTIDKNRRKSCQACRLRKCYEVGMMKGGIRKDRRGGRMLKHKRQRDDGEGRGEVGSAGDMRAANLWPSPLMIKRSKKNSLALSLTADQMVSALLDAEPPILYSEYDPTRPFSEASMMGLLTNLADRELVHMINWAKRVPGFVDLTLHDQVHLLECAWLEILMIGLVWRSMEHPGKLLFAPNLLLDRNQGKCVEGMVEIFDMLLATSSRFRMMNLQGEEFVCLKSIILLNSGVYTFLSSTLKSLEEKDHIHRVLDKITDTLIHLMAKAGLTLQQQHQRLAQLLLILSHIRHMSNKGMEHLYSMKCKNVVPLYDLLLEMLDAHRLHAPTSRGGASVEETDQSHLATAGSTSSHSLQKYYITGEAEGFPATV
Description: Binding affinity to ERalpha

| Compound | Ki [nM] |
| --- | --- |
| COc1ccccc1-c1[nH]c2ccccc2c1C#C[C@]1(O)CC[C@H]2[C@@H]3CCc4cc(O)ccc4[C@H]3CC[C@@]21C | 35 |
| Cc1ccc(S(=O)(=O)Oc2ccc3c(C#C[C@]4(O)CC[C@H]5[C@@H]6CCc7cc(O)ccc7[C@H]6CC[C@@]54C)c(-c4ccc(OCc5ccccc5)cc4)oc3c2)cc1 | 332 |
| C[C@]12CC[C@@H]3c4ccc(O)cc4CC[C@H]3[C@@H]1CC[C@@]2(O)C#CCCCCC#Cc1cccc2c(=O)cc(-c3ccccc3)oc12 | 382 |
| Cc1ccc(S(=O)(=O)Oc2ccc3c(C#CCCCCC#C[C@]4(O)CC[C@H]5[C@@H]6CCc7cc(O)ccc7[C@H]6CC[C@@]54C)c(-c4ccc(OCc5ccccc5)cc4)oc3c2)cc1 | 17900 |
| C[C@]12CC[C@@H]3c4ccc(O)cc4CC[C@H]3[C@@H]1CC[C@@]2(O)C#Cc1c(-c2ccccc2)oc2ccccc2c1=O | 37 |

The next lines start with the values.

| Ki [nM] | Compound |
| --- | --- |
| 100 | C[C@]12CC[C@@H]3c4ccc(O)cc4CC[C@H]3[C@@H]1CC[C@@]2(O)C#Cc1cccc2c(=O)cc(-c3ccccc3)oc12 |
| 63100 | C[C@]12CC[C@@H]3c4ccc(O)cc4CC[C@H]3[C@@H]1CC[C@@]2(O)C#CCCCCC#Cc1c(-c2ccccc2)oc2ccccc2c1=O |
| 75 | C[C@]12CC[C@@H]3c4ccc(O)cc4CC[C@H]3[C@@H]1CC[C@@]2(O)C#Cc1c(-c2ccccc2O)[nH]c2ccccc12 |
